Common to all, as to experiment: DSF 100 kinase selectivity screen;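 note: compound tested at 20 µM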
Holding throughout (assay type): binding

In test [1] the target is T1, ~100 representative kinases (Homo sapiens, UniProt O75582).
T1 construct: Recombinant protein kinase domains with a concentration of 2 μM
The note with it: Protein RPS6KA5; DSF; average of three replicates. Put shortly:
(§1)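 Each kinase domain, at 2 μM, is mixed with 20 μM test compound and SYPRO Orange in Hepes (20 mM, pH 7.5) with 500 mM NaCl. Temperature is then raised at 3°C/min and fluorescence-monitored unfolding yields the melting temperature change, ΔTm in degrees Celsius.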

The target of test [2] is T2, ~100 representative kinases (Homo sapiens, UniProt O95747).
T2 construct: Recombinant protein kinase domains with a concentration of 2 μM
T2 sequence (O95747 whole entry, the tested form may be a part): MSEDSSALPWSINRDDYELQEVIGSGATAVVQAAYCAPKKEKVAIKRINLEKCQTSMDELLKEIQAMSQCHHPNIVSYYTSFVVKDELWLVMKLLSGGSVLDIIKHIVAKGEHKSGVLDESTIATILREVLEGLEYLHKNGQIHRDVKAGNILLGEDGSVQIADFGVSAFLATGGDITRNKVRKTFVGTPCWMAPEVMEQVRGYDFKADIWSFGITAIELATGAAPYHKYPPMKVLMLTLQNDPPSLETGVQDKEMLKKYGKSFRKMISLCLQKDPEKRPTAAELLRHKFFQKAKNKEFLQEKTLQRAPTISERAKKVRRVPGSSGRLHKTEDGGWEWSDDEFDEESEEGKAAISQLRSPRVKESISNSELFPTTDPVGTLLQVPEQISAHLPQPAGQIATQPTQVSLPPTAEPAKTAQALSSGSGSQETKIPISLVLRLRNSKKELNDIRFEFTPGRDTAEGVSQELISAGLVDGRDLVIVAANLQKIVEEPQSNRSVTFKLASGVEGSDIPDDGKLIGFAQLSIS
The note with it: protein OSR1; average of three replicates. Put shortly: as §1

The target of test [3] is T3, ~100 representative kinases (Homo sapiens, UniProt P00519).
T3 construct: Recombinant protein kinase domains with a concentration of 2 μM
T3 sequence (P00519 whole entry, the tested form may be a part): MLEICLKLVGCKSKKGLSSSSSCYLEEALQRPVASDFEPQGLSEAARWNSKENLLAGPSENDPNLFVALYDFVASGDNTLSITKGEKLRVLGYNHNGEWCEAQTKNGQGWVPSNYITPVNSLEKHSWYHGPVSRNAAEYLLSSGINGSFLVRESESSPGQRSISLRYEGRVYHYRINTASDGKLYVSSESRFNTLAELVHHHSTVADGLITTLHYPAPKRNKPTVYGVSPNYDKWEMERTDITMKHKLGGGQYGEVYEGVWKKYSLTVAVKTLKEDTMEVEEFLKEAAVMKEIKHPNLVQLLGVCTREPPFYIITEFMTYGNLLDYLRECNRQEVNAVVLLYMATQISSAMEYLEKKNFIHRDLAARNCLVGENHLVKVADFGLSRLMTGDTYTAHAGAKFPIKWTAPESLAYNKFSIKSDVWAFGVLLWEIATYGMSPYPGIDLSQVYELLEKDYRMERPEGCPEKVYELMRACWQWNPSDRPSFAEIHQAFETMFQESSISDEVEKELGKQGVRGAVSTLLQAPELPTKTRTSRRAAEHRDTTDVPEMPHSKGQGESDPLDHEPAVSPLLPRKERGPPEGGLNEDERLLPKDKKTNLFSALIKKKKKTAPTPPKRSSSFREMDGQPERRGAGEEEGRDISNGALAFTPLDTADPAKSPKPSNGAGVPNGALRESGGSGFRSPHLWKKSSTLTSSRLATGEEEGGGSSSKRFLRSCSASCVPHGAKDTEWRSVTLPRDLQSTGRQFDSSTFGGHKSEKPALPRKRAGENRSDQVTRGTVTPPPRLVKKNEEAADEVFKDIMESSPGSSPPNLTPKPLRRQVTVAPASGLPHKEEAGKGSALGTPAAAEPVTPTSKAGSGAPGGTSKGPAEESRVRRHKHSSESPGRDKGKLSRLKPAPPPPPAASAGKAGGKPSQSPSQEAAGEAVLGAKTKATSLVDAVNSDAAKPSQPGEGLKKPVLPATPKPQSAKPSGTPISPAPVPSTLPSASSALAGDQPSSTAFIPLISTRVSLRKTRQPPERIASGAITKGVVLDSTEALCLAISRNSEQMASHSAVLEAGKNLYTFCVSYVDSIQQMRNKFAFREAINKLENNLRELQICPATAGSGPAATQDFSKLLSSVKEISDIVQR
Put shortly: as §1

Test [4] has as its target T4, ~100 representative kinases (Homo sapiens, UniProt P07332).
T4 construct: Recombinant protein kinase domains with a concentration of 2 μM
The note with it: protein FESA; average of three replicates. Put shortly:
as §1

For test [5], the target named is T5, ~100 representative kinases (Homo sapiens, UniProt P11362).
T5 construct: Recombinant protein kinase domains with a concentration of 2 μM
The note with it: protein FGFR1; average of three replicates. Put shortly:
as §1

The target in test [6] is T6, ~100 representative kinases (Homo sapiens, UniProt P45985).
T6 construct: Recombinant protein kinase domains with a concentration of 2 μM
T6 sequence (P45985 1-399): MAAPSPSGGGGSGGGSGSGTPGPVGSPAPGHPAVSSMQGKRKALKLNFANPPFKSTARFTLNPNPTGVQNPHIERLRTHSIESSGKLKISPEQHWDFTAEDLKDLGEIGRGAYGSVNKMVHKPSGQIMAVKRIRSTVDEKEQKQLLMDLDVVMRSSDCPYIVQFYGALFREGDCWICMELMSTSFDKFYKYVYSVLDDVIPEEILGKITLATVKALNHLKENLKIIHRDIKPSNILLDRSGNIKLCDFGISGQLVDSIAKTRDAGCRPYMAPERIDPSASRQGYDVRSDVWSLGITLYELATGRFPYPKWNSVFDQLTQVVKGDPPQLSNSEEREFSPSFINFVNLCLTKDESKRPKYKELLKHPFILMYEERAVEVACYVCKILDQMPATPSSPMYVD
The note with it: protein MAP2K4; average of three replicates. Put shortly:
as §1

In test [7] the target is T7, ~100 representative kinases (Homo sapiens, UniProt Q13188).
T7 construct: Recombinant protein kinase domains with a concentration of 2 μM
T7 sequence (Q13188 1-491): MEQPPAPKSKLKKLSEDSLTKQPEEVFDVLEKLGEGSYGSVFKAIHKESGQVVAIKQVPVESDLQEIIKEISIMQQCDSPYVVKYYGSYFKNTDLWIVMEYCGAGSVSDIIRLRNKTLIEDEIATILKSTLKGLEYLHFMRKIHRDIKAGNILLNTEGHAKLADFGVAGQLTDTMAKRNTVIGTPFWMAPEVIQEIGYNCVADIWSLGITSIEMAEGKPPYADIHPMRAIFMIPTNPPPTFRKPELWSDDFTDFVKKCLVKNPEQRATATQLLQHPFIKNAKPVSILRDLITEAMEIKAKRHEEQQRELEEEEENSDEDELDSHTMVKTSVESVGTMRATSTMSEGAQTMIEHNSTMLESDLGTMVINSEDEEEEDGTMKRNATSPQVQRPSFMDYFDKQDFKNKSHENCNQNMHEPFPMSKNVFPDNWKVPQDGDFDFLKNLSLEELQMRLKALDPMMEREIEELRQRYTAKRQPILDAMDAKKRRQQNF
Conditions: Protein STK3; DSF; average of three replicates. Put shortly: as §1

The target in test [8] is T8, ~100 representative kinases (Homo sapiens, UniProt Q15418).
T8 construct: Recombinant protein kinase domains with a concentration of 2 μM
T8 sequence (Q15418 whole entry, the tested form may be a part): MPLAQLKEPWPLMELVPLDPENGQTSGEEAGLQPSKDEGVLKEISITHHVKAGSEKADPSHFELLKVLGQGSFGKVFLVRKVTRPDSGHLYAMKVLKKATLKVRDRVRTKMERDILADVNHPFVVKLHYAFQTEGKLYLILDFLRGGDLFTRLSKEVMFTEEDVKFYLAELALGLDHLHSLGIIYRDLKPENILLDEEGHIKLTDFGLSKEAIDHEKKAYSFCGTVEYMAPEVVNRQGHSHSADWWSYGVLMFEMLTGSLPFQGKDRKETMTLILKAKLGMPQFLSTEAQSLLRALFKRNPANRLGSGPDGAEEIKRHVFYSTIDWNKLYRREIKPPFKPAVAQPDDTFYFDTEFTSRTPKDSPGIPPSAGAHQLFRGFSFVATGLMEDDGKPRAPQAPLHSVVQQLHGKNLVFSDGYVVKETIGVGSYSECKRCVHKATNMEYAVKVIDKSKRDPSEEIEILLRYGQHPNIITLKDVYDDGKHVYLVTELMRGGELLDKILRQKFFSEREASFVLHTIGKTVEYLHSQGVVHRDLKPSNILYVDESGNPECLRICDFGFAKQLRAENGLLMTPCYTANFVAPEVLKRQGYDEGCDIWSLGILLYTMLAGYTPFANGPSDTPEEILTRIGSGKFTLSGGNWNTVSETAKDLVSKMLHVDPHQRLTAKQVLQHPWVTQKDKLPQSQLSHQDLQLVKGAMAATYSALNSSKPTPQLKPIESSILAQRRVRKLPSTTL
The note with it: Protein RPS6KA1; DSF; average of three replicates. Put shortly: as §1

Test [9] has as its target T9, ~100 representative kinases (Homo sapiens, UniProt Q86V86).
T9 construct: Recombinant protein kinase domains with a concentration of 2 μM
The note with it: protein PIM3; average of three replicates. Put shortly: as §1

Test [10] deals with T10, ~100 representative kinases (Homo sapiens, UniProt Q8IU85).
T10 construct: Recombinant protein kinase domains with a concentration of 2 μM
T10 sequence (Q8IU85 whole entry, the tested form may be a part): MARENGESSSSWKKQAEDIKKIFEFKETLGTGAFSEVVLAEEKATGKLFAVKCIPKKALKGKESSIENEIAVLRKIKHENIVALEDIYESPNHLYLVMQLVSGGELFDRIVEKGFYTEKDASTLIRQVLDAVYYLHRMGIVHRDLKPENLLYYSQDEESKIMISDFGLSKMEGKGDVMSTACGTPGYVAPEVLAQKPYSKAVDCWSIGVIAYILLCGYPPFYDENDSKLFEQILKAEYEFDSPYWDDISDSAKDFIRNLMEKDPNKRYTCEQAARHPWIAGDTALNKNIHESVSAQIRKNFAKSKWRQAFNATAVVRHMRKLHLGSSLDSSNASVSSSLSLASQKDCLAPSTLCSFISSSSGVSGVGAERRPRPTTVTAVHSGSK
The note with it: Protein CAMK1D; average of three replicates. Put shortly:
as §1

Test [11] addresses T11, ~100 representative kinases (Homo sapiens, UniProt Q8TF76).
T11 construct: Recombinant protein kinase domains with a concentration of 2 μM
T11 sequence (Q8TF76 1-798): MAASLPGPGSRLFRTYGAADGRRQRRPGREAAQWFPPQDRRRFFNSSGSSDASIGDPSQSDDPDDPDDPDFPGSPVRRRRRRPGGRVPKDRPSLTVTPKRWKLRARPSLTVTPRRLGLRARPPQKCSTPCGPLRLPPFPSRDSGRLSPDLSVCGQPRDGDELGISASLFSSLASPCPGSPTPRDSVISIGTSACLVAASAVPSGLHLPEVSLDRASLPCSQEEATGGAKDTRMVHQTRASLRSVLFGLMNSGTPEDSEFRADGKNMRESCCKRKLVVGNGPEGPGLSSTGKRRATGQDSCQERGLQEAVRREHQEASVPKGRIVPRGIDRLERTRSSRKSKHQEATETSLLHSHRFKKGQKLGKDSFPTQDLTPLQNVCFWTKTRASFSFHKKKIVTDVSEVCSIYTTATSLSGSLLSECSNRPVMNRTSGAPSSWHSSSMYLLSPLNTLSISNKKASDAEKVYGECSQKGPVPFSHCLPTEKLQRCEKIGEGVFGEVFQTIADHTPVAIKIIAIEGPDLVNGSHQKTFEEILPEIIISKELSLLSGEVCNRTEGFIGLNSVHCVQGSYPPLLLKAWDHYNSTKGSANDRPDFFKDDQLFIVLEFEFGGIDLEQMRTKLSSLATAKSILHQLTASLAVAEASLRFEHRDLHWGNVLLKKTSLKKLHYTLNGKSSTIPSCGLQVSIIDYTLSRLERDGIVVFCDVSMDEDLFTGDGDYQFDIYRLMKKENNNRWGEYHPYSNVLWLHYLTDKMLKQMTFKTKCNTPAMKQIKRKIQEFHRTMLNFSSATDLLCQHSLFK
Conditions: protein GSG2; average of three replicates. Put shortly:
as §1

[12] abbreviates: Protein ABL1, average of three replicates.

Like-named read-outs stand apart in the source and are kept apart here.

T1 sequence (O75582 whole entry, the tested form may be a part): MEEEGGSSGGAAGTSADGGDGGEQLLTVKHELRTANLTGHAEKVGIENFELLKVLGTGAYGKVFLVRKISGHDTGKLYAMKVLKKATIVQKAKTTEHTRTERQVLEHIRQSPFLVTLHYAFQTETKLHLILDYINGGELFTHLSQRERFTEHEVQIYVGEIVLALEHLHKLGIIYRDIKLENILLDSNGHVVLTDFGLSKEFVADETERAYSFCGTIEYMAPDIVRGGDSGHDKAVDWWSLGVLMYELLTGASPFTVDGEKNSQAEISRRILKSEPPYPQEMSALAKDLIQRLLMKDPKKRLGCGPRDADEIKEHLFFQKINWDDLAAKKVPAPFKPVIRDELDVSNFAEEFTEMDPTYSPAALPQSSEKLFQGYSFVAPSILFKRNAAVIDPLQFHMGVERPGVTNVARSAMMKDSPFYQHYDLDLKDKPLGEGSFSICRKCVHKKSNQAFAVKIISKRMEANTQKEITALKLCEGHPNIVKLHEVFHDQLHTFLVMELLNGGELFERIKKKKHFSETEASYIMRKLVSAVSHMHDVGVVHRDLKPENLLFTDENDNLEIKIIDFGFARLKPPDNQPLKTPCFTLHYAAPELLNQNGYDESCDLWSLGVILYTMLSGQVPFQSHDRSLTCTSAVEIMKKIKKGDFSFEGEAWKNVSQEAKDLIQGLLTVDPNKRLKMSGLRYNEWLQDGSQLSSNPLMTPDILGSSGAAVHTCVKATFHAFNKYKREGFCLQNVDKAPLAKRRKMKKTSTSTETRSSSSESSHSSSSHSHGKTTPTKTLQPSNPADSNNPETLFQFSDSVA
T4 sequence (P07332 whole entry, the tested form may be a part): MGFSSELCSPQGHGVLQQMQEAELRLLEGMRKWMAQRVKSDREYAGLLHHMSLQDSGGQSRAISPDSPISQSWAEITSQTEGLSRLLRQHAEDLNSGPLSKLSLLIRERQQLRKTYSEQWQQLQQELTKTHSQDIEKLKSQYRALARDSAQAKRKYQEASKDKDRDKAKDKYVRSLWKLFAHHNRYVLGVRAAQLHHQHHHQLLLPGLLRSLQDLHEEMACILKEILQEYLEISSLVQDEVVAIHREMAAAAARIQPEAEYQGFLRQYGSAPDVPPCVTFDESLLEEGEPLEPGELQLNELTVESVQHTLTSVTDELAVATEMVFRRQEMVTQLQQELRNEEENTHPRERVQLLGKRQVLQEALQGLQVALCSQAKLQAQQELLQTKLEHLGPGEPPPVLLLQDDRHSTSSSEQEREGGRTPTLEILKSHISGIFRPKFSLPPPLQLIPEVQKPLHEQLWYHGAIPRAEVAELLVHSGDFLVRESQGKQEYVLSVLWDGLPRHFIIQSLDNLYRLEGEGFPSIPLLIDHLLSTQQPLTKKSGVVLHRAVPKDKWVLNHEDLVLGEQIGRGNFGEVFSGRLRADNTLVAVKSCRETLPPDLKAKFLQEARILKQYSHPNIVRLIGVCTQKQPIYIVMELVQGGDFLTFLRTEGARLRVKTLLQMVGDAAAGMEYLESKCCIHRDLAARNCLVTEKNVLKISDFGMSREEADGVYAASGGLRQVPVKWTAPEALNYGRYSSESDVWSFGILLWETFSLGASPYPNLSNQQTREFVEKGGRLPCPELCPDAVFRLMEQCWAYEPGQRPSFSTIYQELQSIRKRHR

On to `Cc1ccc(C(=O)Nc2ccc(CN3CCN(C)CC3)c(C(F)(F)F)c2)cc1C#Cc1c[nH]c2ncnc(N3CCOCC3)c12` [Compound 1], for which the dTm is reported as 1.58 K in test [1]; 1.78 K in test [2]; 7.59 K in [3] (setting [12]); 3.82 K in test [4]; 2.59 K in test [5]; 7.64 K in test [6]. Moreover, the dTm is listed as 10.52 K in test [7]; 2.57 K in [8]; 2.19 K in [9]; 0.56 K in [10]; 0.98 K in test [11].
As for `O=C(Nc1ccc(F)cc1)C1(C(=O)Nc2cccc(-c3c[nH]c4ncnc(N5CCOCC5)c34)c2)CC1` [Compound 2], the dTm is on record as 4.64 K in [1]; 1.55 K in [2]; 1.47 K in test [3] (setting [12]); 7.20 K in [4]; 1.19 K in test [5]; 4.96 K in [6]. Further, the dTm in test [7] was 7.33 K; in test [8], 0.23 K; in test [9], -0.94 K; in test [10], -1.26 K; in [11], -0.43 K.
With `O=C(Nc1cccc(-c2c[nH]c3ncnc(N4CCOCC4)c23)c1)c1cccn(-c2ccc(F)cc2)c1=O` [Compound 4], the dTm in test [1] is -0.28 K; in test [2], 1.98 K; in [3] (setting [12]), 2.49 K; in test [4] it was 6.45 K; in test [5], 3.37 K; in test [6], 6.40 K. Moreover, the dTm in [7] was 9.51 K; in [8], -0.19 K; in test [9], 0.41 K; in test [10] it was -1.98 K; in [11], -1.23 K.
Consider `Cc1cc(NC(=O)C2(C(=O)Nc3ccc(F)cc3)CC2)cc(-c2c[nH]c3ncnc(N4CCOCC4)c23)c1` [Compound 6], for which the dTm is listed as 3.89 K in test [1]; -0.63 K in [2]; 1.02 K in [3] (setting [12]); 4.17 K in test [4]; 0.32 K in [5]; 3.77 K in test [6]. Besides, the dTm is 6.70 K in [7]; 0.88 K in test [8]; 1.05 K in test [9]; 1.65 K in test [10]; -1.48 K in test [11].
Regarding `O=C(Nc1cccc(-c2c[nH]c3ncnc(N4CCOCC4)c23)c1)C1(C(=O)Nc2cccc3c2CCC3)CC1` [Compound 11], the dTm turned out to be 0.69 K in test [1]; 0.42 K in test [2]; 1.38 K in test [3] (setting [12]); 4.12 K in [4]; 0.52 K in test [5]; 5.91 K in test [6]. Moreover, the dTm in [7] was 4.65 K; in test [8] it was 0.47 K; in [9] it was 0.61 K; in test [10], 1.59 K; in test [11], -2.96 K.
For `O=C(Nc1ccccc1)C1(C(=O)Nc2cccc(-c3c[nH]c4ncnc(N5CCOCC5)c34)c2)CC1` [Compound 12], the dTm in test [1] worked out at 6.52 K; in test [2], 1.28 K; in test [3] (setting [12]), 1.58 K; in test [4] it was 6.39 K; in test [5], 1.41 K; in test [6], 5.86 K. The dTm was 6.83 K in [7]; 0.56 K in [8]; 0.88 K in test [9]; -1.41 K in test [10]; -0.45 K in test [11].
With `O=C(Nc1ccc(Cl)cc1)C1(C(=O)Nc2cccc(-c3c[nH]c4ncnc(N5CCOCC5)c34)c2)CC1` [Compound 13], the dTm in test [1] came out at 5.83 K; in test [2] it was 2.33 K; in test [3] (setting [12]), 2.64 K; in test [4], 8.66 K; in [5] it was 1.36 K; in test [6] it was 6.61 K. In addition, the dTm in test [7] is reported as 10.20 K; in [8], -0.42 K; in test [9], 1.90 K; in test [10] it was 0.67 K; in test [11], 0.82 K.
Regarding `Cc1ccc(C(=O)Nc2ccc(CN3CCN(C)CC3)c(C(F)(F)F)c2)cc1C#Cc1cnc2[nH]ncc2c1` [GZD-824, reference compound], the dTm was found to be 8.48 K in test [1]; 0.93 K in test [2]; 30.43 K in test [3]; 12.20 K in [5]; 1.62 K in test [6]; 7.78 K in [7]. Besides, the dTm is on record as 9.39 K in [8], 0.45 K in test [9], -0.60 K in [10] and 0.04 K in test [11].
Regarding `Cc1ccc(C(=O)Nc2ccc(CN3CCN(C)CC3)c(C(F)(F)F)c2)cc1C#Cc1cnc2cccnn12` [Ponatinib, reference compound], the dTm is recorded as 11.47 K in test [5] and 9.86 K in test [8].
In the case of `CNC(=O)c1cc(Oc2ccc(NC(=O)Nc3cc(C(C)(C)C)nn3-c3ccc4ncccc4c3)c(F)c2)ccn1` [Rebastinib, reference compound], the dTm in [2] turned out to be 1.75 K; in test [4], 7.16 K; in test [5], 5.75 K; in [6], 0.53 K; in test [7], 9.02 K; in test [8] it was 1.31 K. In addition, the dTm in [9] amounted to 6.29 K; in test [10] it was 1.21 K; in test [11] it was 0.28 K.
With `CN[C@@H]1C[C@H]2O[C@@](C)([C@@H]1OC)n1c3ccccc3c3c4c(c5c6ccccc6n2c5c31)C(=O)NC4` [Staurosporine], the dTm in test [1] is reported as 13.79 K; in test [2], 8.41 K; in test [7], 16.47 K; in test [9], 16.71 K; in test [11], 8.53 K.
